Converted amounts (≈) assume the structure as drawn. Like-named read-outs stand apart in the source and are kept apart here.
How the values were obtained:
[1] = Solubility of AB-250 in water, ethanol and aqueous alcohol; format: physicochemical
Text: 1. Data on the solubility increasing effect of aqueous alcohol:
The solubility of AB-250 in water of pH 5-7 was 0.4% and that in ethanol was 0.03%.
It is, thus, evident that the use of aqueous ethanol results in a remarkable increase in the solubility of the active compound.

[2] = test system: human urethra and vesical triangle; settings: human tissues; cited from earlier work
ai-receptor = settings: compared with prazosin hydrochloride; cited from earlier work
[3] = test system: rabbit prostate, urethra and vesical triangle (trigone of the bladder); settings: rabbit tissues; cited from earlier work

Row | SMILES | solubility ([1]; 50% ethanol, organic solvent or mixture, Michaelis buffer containing 50% of ethanol, pH 8, read-out: solubility in aqueous ethanol containing 50% of ethanol) | solubility ([1]; 60% ethanol, organic solvent or mixture, Michaelis buffer containing 60% of ethanol, pH 7, read-out: solubility in aqueous ethanol containing 60% of ethanol) | greater solubility in aqueous alcohol ([1]; aqueous alcohol compared with water and pure alcohol) | solubility ([1]; ethanol, organic solvent or mixture, read-out: solubility in ethanol) | solubility increasing effect with isopropyl alcohol in lieu of ethanol ([1]; isopropyl alcohol used in lieu of ethanol) | solubility ([1]; water of pH 5-7, read-out: solubility in water) | contraction of the human urethra and vesical triangle [2] | ai-receptor blocking activity (ai-receptor) | contraction of the rabbit prostate, urethra and vesical triangle [3]
1 | CCOc1ccccc1OCCNC(C)Cc1ccc(OC)c(S(N)(=O)=O)c1 (stereo not drawn) [AB-250, 5-[2-[[2-(o-Ethoxyphenoxy)-ethyl]amino]propyl]-2-methoxybenzenesulfonamide] | 51 mg/mL (≈ 125 mM) | 48 mg/mL (≈ 117 mM) | no less than 10 fold | 0.3 mg/mL (≈ 0.734 mM) | More or less the same effect | 4 mg/mL (≈ 9.79 mM) |  |  | 
2 | CCOc1ccccc1OCCNC(C)Cc1ccc(OC)c(S(N)(=O)=O)c1 (stereo not drawn) [amusulosin, 5-[2-[[2-(o-Ethoxyphenoxy)-ethyl]amino]propyl]-2-methoxybenzenesulfonamide] |  |  |  |  |  |  | reduces the contraction | higher than that of prazosin hydrochloride | reduces the contraction
